One series addresses T1, Myeloperoxidase (Mus musculus, UniProt P11247).
T1 sequence (P11247 whole entry): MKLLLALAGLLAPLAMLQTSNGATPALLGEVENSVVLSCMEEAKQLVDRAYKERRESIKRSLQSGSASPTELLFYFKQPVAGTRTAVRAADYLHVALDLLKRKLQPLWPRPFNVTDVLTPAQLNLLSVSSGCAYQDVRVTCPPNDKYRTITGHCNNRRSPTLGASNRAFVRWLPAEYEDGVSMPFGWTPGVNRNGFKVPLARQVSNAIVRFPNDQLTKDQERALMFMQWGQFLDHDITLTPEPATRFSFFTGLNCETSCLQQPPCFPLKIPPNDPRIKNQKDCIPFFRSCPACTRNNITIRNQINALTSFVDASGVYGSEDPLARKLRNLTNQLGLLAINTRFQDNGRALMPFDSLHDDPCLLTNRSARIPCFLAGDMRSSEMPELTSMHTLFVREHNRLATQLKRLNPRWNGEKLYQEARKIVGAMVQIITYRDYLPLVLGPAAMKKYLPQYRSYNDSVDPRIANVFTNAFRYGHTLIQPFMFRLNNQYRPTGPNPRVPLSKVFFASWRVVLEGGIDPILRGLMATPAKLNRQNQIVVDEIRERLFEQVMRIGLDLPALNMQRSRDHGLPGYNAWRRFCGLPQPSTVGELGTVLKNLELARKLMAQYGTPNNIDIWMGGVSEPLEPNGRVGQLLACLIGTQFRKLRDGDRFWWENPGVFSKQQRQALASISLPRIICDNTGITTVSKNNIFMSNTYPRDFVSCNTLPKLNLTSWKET
As to the kind of experiment: Inhibition of PMA-induced MPO in mouse Neutrophil incubated for 3 mins by luminometry. Format: tissue-based.

A further series addresses T2, Eosinophil peroxidase (Homo sapiens, UniProt P11678).
T2 sequence (P11678 whole entry): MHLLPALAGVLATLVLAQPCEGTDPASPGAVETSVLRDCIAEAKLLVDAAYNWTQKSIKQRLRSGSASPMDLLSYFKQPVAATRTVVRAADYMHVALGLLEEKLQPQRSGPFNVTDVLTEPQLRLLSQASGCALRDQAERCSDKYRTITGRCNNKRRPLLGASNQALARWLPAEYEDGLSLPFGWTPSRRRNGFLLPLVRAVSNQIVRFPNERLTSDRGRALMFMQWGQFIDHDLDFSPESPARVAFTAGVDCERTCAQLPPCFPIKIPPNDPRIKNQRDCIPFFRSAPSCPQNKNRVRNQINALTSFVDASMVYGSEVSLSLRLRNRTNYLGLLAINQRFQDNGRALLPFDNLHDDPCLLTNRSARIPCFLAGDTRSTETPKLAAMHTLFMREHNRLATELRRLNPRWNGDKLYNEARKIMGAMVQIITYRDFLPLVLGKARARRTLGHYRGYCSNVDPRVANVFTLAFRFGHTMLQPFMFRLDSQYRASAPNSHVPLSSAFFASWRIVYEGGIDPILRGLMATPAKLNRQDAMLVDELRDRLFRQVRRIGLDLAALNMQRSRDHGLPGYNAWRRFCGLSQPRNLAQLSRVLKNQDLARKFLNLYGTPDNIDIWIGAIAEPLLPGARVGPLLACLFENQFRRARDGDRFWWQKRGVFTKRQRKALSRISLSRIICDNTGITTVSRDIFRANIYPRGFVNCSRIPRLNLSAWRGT
As to the kind of experiment: Inhibition of human EPX bromination activity using tyrosine as substrate by measuring 3-bromo tyrosine formation incubated for 10 mins.

The nature of series [1]: Binding affinity to human neutrophil MPO delta (1-95) measured for 5 mins by SPR assay. (Surface plasmon resonance follows binding to a sensor surface in real time, without labels.)
The nature of series [2]: Cmax in CD-1 mouse at 3 mg/kg, po by LC/MS analysis. The conditions noted are these: in vivo. Format: ADME, organism-based. Details: route oral, dose 3 mg/kg; call rule not given here.
For series [3], the target named is T3, Methylated-DNA--protein-cysteine methyltransferase (Homo sapiens, UniProt P16455).
T3 sequence (P16455 whole entry): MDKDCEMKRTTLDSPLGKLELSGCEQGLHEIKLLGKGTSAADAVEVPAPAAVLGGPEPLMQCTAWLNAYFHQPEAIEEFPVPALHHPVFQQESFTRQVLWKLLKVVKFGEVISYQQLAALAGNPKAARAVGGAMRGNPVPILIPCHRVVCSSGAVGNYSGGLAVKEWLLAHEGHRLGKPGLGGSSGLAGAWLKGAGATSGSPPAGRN
The experiment in a line: Inhibition of human MGMT using 06-benzylguanine as substrate incubated for 30 mins by LC/MS analysis. The conditions noted are these: 0.5 h.

Series [4] can be described thus: Dissociation constant, pKa of the compound. Type of series: physicochemical.
A short description of another series: animal or person. The conditions noted are these: Mus musculus, po, 6 h, read-out: INH.
A short description of series [5]: Half life in CD-1 mouse at 3 mg/kg, po by LC/MS analysis. Type of series: ADME, organism-based. To be noted: in vivo.
The nature of series [6]: AUCtot in CD-1 mouse at 3 mg/kg, po by LC/MS analysis. To be noted: in vivo. Type of series: ADME, organism-based. Details: time AUCmax, route oral, dose 3 mg/kg.
A further series has as its target Cytochrome P450 2D6 (Homo sapiens, UniProt P10635). As to the kind of experiment: Inhibition of CYP2D6 (unknown origin). Format: ADME.
Series [7] is described as follows: Protein binding in human plasma assessed as free fraction. Format: ADME, cell-free.
A short description of series [8]: Stability of compound at pH 1 assessed as half life. To be noted: buffer. Format: physicochemical.

Chain of Cytochrome P450 2D6 (P10635 whole entry): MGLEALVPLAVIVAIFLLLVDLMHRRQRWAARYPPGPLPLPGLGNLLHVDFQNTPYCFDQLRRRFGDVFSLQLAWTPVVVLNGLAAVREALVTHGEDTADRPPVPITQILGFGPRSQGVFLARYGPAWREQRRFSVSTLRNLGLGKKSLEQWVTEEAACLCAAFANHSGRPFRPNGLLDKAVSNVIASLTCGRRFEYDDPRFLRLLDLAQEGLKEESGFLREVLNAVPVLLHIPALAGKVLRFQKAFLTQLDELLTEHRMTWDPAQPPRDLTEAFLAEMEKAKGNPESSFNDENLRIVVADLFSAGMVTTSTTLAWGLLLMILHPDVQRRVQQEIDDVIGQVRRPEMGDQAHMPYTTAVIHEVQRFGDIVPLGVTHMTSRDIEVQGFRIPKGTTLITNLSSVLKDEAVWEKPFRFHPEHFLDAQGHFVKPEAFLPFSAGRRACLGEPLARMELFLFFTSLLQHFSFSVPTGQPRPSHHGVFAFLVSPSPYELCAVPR

With `Nc1cc(Cc2ccccc2)c2nn[nH]c2n1`, the IC50 against Myeloperoxidase was 9500 nM; on Eosinophil peroxidase, 32 nM; against Cytochrome P450 2D6, over 10000 nM. The molecule also had a Kd in [1] of 32 nM. Also, the Cmax in series [2] came to 13 µM. Besides, the “inhibition (INH)” value in series [3] is on record as “Not Active”. In series [4], this molecule registered a pKa of 7.4. For the same molecule, the inhibition in vivo at 30 mg/kg in the series “animal or person” was determined as 55%. The values for the half-life in series [5] and in [8] were 2 h and over 100 h, respectively. This molecule also gave an AUC in [6] of 47.9 µM·h. Also, in [7], the fraction unbound was 0.17.

What is called IC50 is the point on the concentration scale where inhibition reaches its midpoint. Lower therefore signals inhibition by little substance. As usually defined, the Kd is the equilibrium constant for the complex coming apart. High values mean a looser complex, low ones a tighter complex. By Cmax is commonly meant the maximum level reached in the sampled fluid or tissue. What is called pKa is the negative logarithm of the acid dissociation constant. Read a high pKa as a weaker acid or stronger base. The term half-life denotes the time in which the quantity being followed falls by half. For orientation: AUC means the area under the concentration-time curve, a measure of exposure. A lower AUC goes with less exposure. The term fraction unbound denotes free concentration divided by total concentration.

These data come from ChEMBL document CHEMBL4699540, “Discovery and structure activity relationships of 7-benzyl triazolopyridines as stable, selective, and reversible inhibitors of myeloperoxidase” (Bioorg Med Chem, 2020).
